Laboratory results: PubChem BioAssay (NCI)
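48-hour exposure; five concentrations; linearly interpolated endpoints. At the TGI there is no net growth.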

Assays:
Assay in all cases: DTP human tumour cell line panel, 48 h
[1] = tested on: A498 renal
[2] = tested on: A549 NSCLC
[3] = tested on: ACHN renal
[4] = tested on: BT-549 breast
[5] = tested on: CAKI-1 renal
[6] = tested on: CCRF-CEM leukemia
[7] = tested on: COLO 205 colon
[8] = tested on: DU-145 prostate
[9] = tested on: EKVX NSCLC
[10] = tested on: HCC-2998 colon
[11] = tested on: HCT-116 colon
[12] = tested on: HCT-15 colon
[13] = tested on: HL-60(TB) leukemia
[14] = tested on: HOP-62 NSCLC
[15] = tested on: HOP-92 NSCLC
[16] = tested on: HS 578T breast
[17] = tested on: HT29 colon
[18] = tested on: IGROV1 ovarian
[19] = tested on: K-562 leukemia
[20] = tested on: KM12 colon
[21] = tested on: LOX IMVI melanoma
[22] = tested on: M14 melanoma
[23] = tested on: MALME-3M melanoma
[24] = tested on: MCF7 breast
[25] = tested on: MDA-MB-231 breast
[26] = tested on: MDA-MB-435
[27] = tested on: MDA-N
[28] = tested on: MOLT-4 leukemia
[29] = tested on: NCI-H226 lung
[30] = tested on: NCI-H23 lung
[31] = tested on: NCI-H460 lung
[32] = tested on: NCI-H522 lung
[33] = tested on: NCI/ADR-RES ovarian
[34] = tested on: OVCAR-3 ovarian
[35] = tested on: OVCAR-4 ovarian
[36] = tested on: OVCAR-5 ovarian
[37] = tested on: OVCAR-8 ovarian
[38] = tested on: PC-3 prostate
[39] = tested on: RPMI-8226 leukemia
[40] = tested on: RXF 393 renal
[41] = tested on: SF-268 CNS
[42] = tested on: SF-539 CNS
[43] = tested on: SK-MEL-2 melanoma
[44] = tested on: SK-MEL-28 melanoma
[45] = tested on: SK-MEL-5 melanoma
[46] = tested on: SK-OV-3 ovarian
[47] = tested on: SN12C renal
[48] = tested on: SNB-19 CNS
[49] = tested on: SNB-75 CNS
[50] = tested on: SR leukemia
[51] = tested on: SW-620 colon
[52] = tested on: T-47D breast
[53] = tested on: TK-10 renal
[54] = tested on: U251 CNS
[55] = tested on: UACC-257 melanoma
[56] = tested on: UACC-62 melanoma
[57] = tested on: UO-31 renal
[58] = tested on: 786-0 renal
[59] = tested on: SF-295 CNS

With `CC(NC(=O)C(NC(=O)C(NC(=O)C(F)(F)F)C(C)C)C(C)C)C(=O)Oc1c(Cl)c(Cl)c(Cl)c(Cl)c1Cl` (stereo unspecified) the TGI [1] was > 100 µM, the TGI [2] was > 100 µM and the TGI [3] was > 100 µM. For the same molecule, the TGI [4] was > 100 µM, the TGI [5] was > 100 µM and the TGI [6] was > 100 µM. For the same molecule, the TGI [7] was > 100 µM, the TGI [8] was > 100 µM and the TGI [9] was > 100 µM. For the same molecule, the TGI [10] was > 100 µM, the TGI [11] was > 100 µM and the TGI [12] was > 100 µM. For the same molecule, the TGI [13] was > 100 µM, the TGI [14] was > 100 µM and the TGI [15] was > 100 µM. For the same molecule, the TGI [16] was > 100 µM, the TGI [17] was > 100 µM and the TGI [18] was > 100 µM. For the same molecule, the TGI [19] was > 100 µM, the TGI [20] was > 100 µM and the TGI [21] was > 100 µM. For the same molecule, the TGI [22] was > 100 µM, the TGI [23] was > 100 µM and the TGI [24] was > 100 µM. The TGI [25] was > 100 µM, the TGI [26] was > 100 µM and the TGI [27] was > 100 µM. For the same molecule, the TGI [28] was > 100 µM, the TGI [29] was > 100 µM and the TGI [30] was > 100 µM. The TGI [31] was > 100 µM, the TGI [32] was > 100 µM and the TGI [33] was > 100 µM. For the same molecule, the TGI [34] was > 100 µM, the TGI [35] was > 100 µM and the TGI [36] was > 100 µM. The TGI [37] was > 100 µM, the TGI [38] was > 100 µM and the TGI [39] was > 100 µM. The TGI [40] was > 100 µM, the TGI [41] was > 100 µM and the TGI [42] was > 100 µM. For the same molecule, the TGI [43] was > 100 µM, the TGI [44] was > 100 µM and the TGI [45] was > 100 µM. The TGI [46] was > 100 µM, the TGI [47] was > 100 µM and the TGI [48] was > 100 µM. The TGI [49] was > 100 µM, the TGI [50] was > 100 µM and the TGI [51] was > 100 µM. The TGI [52] was > 100 µM, the TGI [53] was > 100 µM and the TGI [54] was > 100 µM. The TGI [55] was > 100 µM, the TGI [56] was > 100 µM and the TGI [57] was > 100 µM.

`COc1cc([C@@H]2c3cc4c(cc3[C@H](OC3OC5COC(C(C)C)OC5C(O)C3O)C3COC(=O)[C@@H]32)OCO4)cc(OC)c1OC` (stereo partly specified) was tested, and the TGI [58] was 12.5 µM, the TGI [1] was 9.96 µM and the TGI [2] was > 100 µM. It also gave a TGI [3] of 21.2 µM, a TGI [4] of 20.2 µM and a TGI [5] of 17.5 µM. The TGI [6] was > 29.6 µM, the TGI [7] was 14.6 µM and the TGI [8] was 55.5 µM. The TGI [9] was > 100 µM, the TGI [10] was 21.7 µM and the TGI [11] was 7.8 µM. The TGI [12] was 94.1 µM, the TGI [13] was > 25.8 µM and the TGI [14] was 25.4 µM. The TGI [15] was 24.6 µM, the TGI [16] was > 30.9 µM and the TGI [17] was 7.11 µM. For the same molecule, the TGI [18] was 12.5 µM, the TGI [19] was > 100 µM and the TGI [20] was 18 µM. For the same molecule, the TGI [21] was 27 µM, the TGI [22] was > 33 µM and the TGI [23] was 30.5 µM. For the same molecule, the TGI [24] was 13.2 µM, the TGI [25] was 19.2 µM and the TGI [26] was > 54.2 µM. For the same molecule, the TGI [27] was 3.53 µM, the TGI [28] was > 68.4 µM and the TGI [29] was 12.6 µM. For the same molecule, the TGI [30] was 16.5 µM, the TGI [31] was 7.18 µM and the TGI [32] was 17.7 µM. The TGI [33] was > 79.5 µM, the TGI [34] was 8.55 µM and the TGI [35] was > 100 µM. The TGI [36] was > 73.8 µM, the TGI [37] was 30.1 µM and the TGI [38] was 22.4 µM. For the same molecule, the TGI [39] was 48.8 µM, the TGI [40] was 9.46 µM and the TGI [41] was > 100 µM. For the same molecule, the TGI [59] was > 23.8 µM, the TGI [42] was > 25.9 µM and the TGI [43] was 25.4 µM. The TGI [44] was > 100 µM, the TGI [45] was 20.4 µM and the TGI [46] was > 100 µM. For the same molecule, the TGI [47] was > 100 µM, the TGI [48] was > 40.6 µM and the TGI [49] was 96.8 µM. For the same molecule, the TGI [50] was 66.5 µM, the TGI [51] was > 100 µM and the TGI [52] was 65.5 µM. The TGI [53] was > 100 µM, the TGI [54] was > 21.2 µM and the TGI [55] was 22.6 µM. The TGI [56] was 26.6 µM and the TGI [57] was 42.1 µM.
